Where “and” joins values, the source holds several entries; their conditions need not be identical. Equal values may be shown once. Entries after “also recorded” stand apart in the source; their conditions may differ.
Experiments:
[1] = system: serum phosphodiesterases; assay: Stability of 2-5A core derivatives to serum phosphodiesterase; type: in vitro ADME, fetal calf; settings: for Hydrolysis Products / % Hydrolysis: 300 μM, 37° C.; for Hydrolysis Products: 10% fetal calf serum, 6 h, identified by HPLC; for % Hydrolysis: RPMI-1640 + 10% fetal calf serum, 6 h (A2, A3: 20 min); for hydrolysis (in words): serum-containing medium
Method: The stability of authentic 2-5A and phosphorothioate/phosphodiester trimer and tetramer core derivatives (300 μM) was determined by incubation in 200 μL of RPMI-1640 medium supplemented with 10% fetal calf serum in 5% CO2 -in-air at 37° C. Aliquots (30 μL) were removed at time zero and 6 hours. The hydrolysis products were identified by HPLC as described in Kariko et al. , Biochemistry 26: 7127-7135 (1987).
No hydrolysis of the phosphorothioate/phosphodiester trimer core derivatives was observed. However, the phosphorothioate/phosphodiester tetramer core derivatives were hydrolyzed from the 5'- or 2',3'-terminus, depending on the location of the phosphorothioate-substituted internucleotide linkage.

[2] = system: RNase L; assay: rRNA cleavage assay in L929 cell extracts (activation of RNase L); type: biochemical; settings: 1 h at 30° C., > = no activation up to this concentration
Method: FIG. 2A represents the results of a ribosomal RNA cleavage assay with 2',5'-phosphorothioate/phosphodiester trimer core 2-5A derivatives. The procedure was performed according to the method of Kariko et al., Biochemistry 26: 7127-7135 (1987). 2-5A oligomer (phosphodiester internucleotide linkage) is also included for comparison. L929 cell extracts were incubated in the absence (lane 1) or presence of p3 A3 at 10^-8 M (lane 2), ARp *ApA at 10^-6 M (lane 3), ASp *ApA at 10^-6 M (lane 4), ApARp *A at 10^-6 M (lane 5), ApASp *A at 10^-6 M (lane 6) or A3 at 10^-6 M (lane 7). The positions of 28S and 18S rRNA are shown; the arrows indicate the positions of the well-characterized specific cleavage products (SCP) of RNase L.
FIG. 2B represents the results of a ribosomal RNA cleavage assay performed according to the method of FIG. 2A with 2',5'-phosphorothioate/phosphodiester trimer 5'-monophosphate derivatives. L929 cell extracts were incubated in the absence (lane 1) or presence of p3 A3 at 2×10^-9 M (lane 2), pA3 at 10^-6 M (lane 3), pARp *ApA at 10^-7 M (lane 4), pASp *ApA at 10^-7 M (lane 5), pApARp *A at 2×10^-9 M (Lane 6), pApASp *A at 10^-7 M (lane 7).
FIG. 3A represents the results of a ribosomal RNA cleavage assay performed according to the method of FIG. 2A with 2',5'-phosphorothioate/phosphodiester tetramer core 2-5A derivatives. 2-5A oligomer (phosphodiester internucleotide linkage) is also included for comparison. L929 cell extracts were incubated in the absence (lane 1) or presence of p3 A4 at 10^-8 M (lane 2), A4 at 10^-5 M (lane 3), ARp *ApApA at 10^-5 M (lane 4), ASp *ApApA at 10^-5 M (lane 5), ApARp *ApA at 10^-5 M (lane 6), ApASp *ApA at 10^-5 M (lane 7), ApApARp *A at 10^-5 M (lane 8) or ApApASp *A at 10^-5 M (lane 9).
FIG. 3B represents the results of a ribosomal RNA cleavage assay performed according to the method of FIG. 2A with 2',5'-phosphorothioate/phosphodiester tetramer 5'-monophosphate derivatives. L929 cell extracts were incubated in the absence (lane 1) or presence of p3 A4 at 10^-8 M (lane 2), pA4 at 10^-6 M (lane 3), pARp *ApApA at 10^-6 M (lane 4), pASp *ApApA at 10^-6 M (lane 5), pApARp *ApA at 10^-8 M (lane 6), pApASp *ApA at 10^-5 M (lane 7), pApApARp *A at 10^-7 M (lane 8) or pApApASp *A at 10^-7 M (lane 9).
Activation of RNase L by the phosphorothioate/phosphodiester trimer and tetramer 2-5A derivatives was also measured in a rRNA cleavage assay using L929 cell extracts according to the method of Kariko et al. (1987), supra, in which extracts of L929 cells were incubated for 1 h at 30° C. in the presence or absence of 2-5A or 2-5A derivative. […] Authentic p3 A3 was active at 1×10^-8 M (FIG. 2A, lane 2). The corresponding 5'-monophosphates, pARp *ApA, pASp *ApA and pApARp *A, activated at 1×10^-7 M, 1×10^-7 M, and 2×10^-9 M, respectively (FIG. 2B, lanes 4-6), as compared with pA3 which was active at 1×10^-6 M (lane 3).

[3] = system: HIV-1 reverse transcriptase; assay: HIV-1 reverse transcriptase activity in culture supernatant of infected Sup T1 cells; type: cell-based; settings: for Percent Inhibition of HIV-1 Reverse Transcriptase: 300 μM (adenosine and adenine 900 μM), 6 h pre-treatment, 96 h post-infection, average of triplicates
Method: Sup T1 cells were treated with 2-5A or a phosphorothioate/phosphodiester derivative at 300 μM for 6 hours and then infected with HIV-1 at a multiplicity of infection (M.O.I) of approximately 0.1. Adenosine and adenine were tested at 900 μM. At 96 hours post-infection, culture supernatant was removed and HIV-1 RT activity was assayed in triplicate as described by Henderson et al., Virology 182:186-198 (1991). Briefly in this method, 25 μl of culture supernatant was added to a 50 μl cocktail containing 50 mM Tris (pH 8.0), 20 mM dithiothreitol, 10 mM MgCl2, 60 mM NaCl, 0.05 Nonidet p-40, 5 μg/ml oligodeoxythymidylic acid, 10 μg/ml polyriboadenylic acid, 10 μM deoxythymidine triphosphate and 1 mCi [^32 p]thymidine 5'-triphosphate. The mixture was incubated at 37° C. for 2 hours. Fifty microliters of the cocktail were then spotted onto diethylaminoethyl (DEAE) paper, dried, washed with 2× SSC solution (three times for 10 minutes each time) and 95% ethanol (two times for 5 minutes each time), dried and exposed to radiographic film for 18 to 24 hours at -80° C. The filters were cut and final quantitation was determined by scintillation spectrometry.

[4] = system: HIV-1 strain IIIB; assay: Inhibition of HIV-1-induced syncytia formation (infected centers assay); type: cell-based; settings: for inhibition of syncytia formation (in words): 3×10^-4 M (adenosine 9×10^-4 M); for inhibition of HIV-1-induced syncytia formation: 3×10^-4 M, PBL infected with HIV-1 IIIB, Sup T1 cells, read at 72 h
Source text: FIG. 5A represents the results of an assay performed according to the method of Henderson et al., Virology 182: 186-198 (1991), indicating the inhibition of HIV-1 (IIIB)-induced syncytia formation by adenosine, 2-5A trimer or tetramer core or 2',5'- phosphorothioate/phosphodiester trimer derivatives: ARp *ApA, ASp *ApA, ApARp *A, ApASp *A, ARp *ApApA, ASp *ApApA, ApARp *ApA, ApASp *ApA, ApApARp *A, ApApASp *A.
FIG. 5B is the results of an assay performed according to the method of FIG. 5A with a 2',5'-phosphorothioate/phosphodiester tetramer derivative of 2-5A core.
The infected centers assay as described by Henderson et al., Virology 182: 186-198 (1991), was used to measure the ability of the phosphorothioate/phosphodiester derivatives of 2-5A trimer and tetramer cores to inhibit HIV-1 induced syncytia formation, an indicator of HIV-1 replication in T cells. Freshly isolated peripheral blood lymphocytes (PBL) were treated with 2-5A or derivatives for 2 h and infected with HIV-1 strain IIIB at a m.o.i. of approximately 0.1. The infected PEL were maintained in RPMI-1640 medium supplemented with 10% (v/v) heat-inactivated fetal calf serum at 37° C. in a humidified 5% CO2 in air atmosphere. After 48 h, the cells were washed twice in Hank's balaned salt solution, serially diluted and seeded into multiple wells of a 96-well microtiter plate. Immediately, 2×10^5 exponentially growing Sup T1 cells were added to each well; Sup T1 cells readily form a syncytium with a cell which is productively infected with HIV-1. The wells were examined daily for the presence of syncytia, using a tissue culture microscope. The first signs of syncytia formation can be seen in 12 h, with some complete syncytia developing by 24 h. Final results were read at 72 h. Each syncytium was counted as a single infected cell. The number of syncytia per seeded cell is determined and expressed as an infected center per infected cell. In the control (no 2-5A derivative added), 100% syncytia formation was equivalent to 12±3 syncytia per 200 HIV-1 infected cells.

| Molecule | Hydrolysis Products [1] | % Hydrolysis [1] | hydrolysis (in words) [1] | concentration at which RNase L is activated to cleave rRNA to SCP [2] [µM] | Percent Inhibition of HIV-1 Reverse Transcriptase [3] [%] | inhibition of syncytia formation (in words) [4] | inhibition of HIV-1-induced syncytia formation [4] [%] | inhibition of HIV-1 RT activity (in words) [3] | inhibition of syncytia formation (in words) ([4]; listed as Adenosine) |
| --- | --- | --- | --- | --- | --- | --- | --- | --- | --- |
| Nc1ncnc2c1ncn2[C@@H]1O[C@H](CO[P@@](O)(=S)O[C@@H]2[C@H](O)[C@@H](COP(=O)(O)O[C@@H]3[C@H](O)[C@@H](COP(=O)(O)O[C@@H]4[C@H](O)[C@@H](CO)O[C@H]4n4cnc5c(N)ncnc54)O[C@H]3n3cnc4c(N)ncnc43)O[C@H]2n2cnc3c(N)ncnc32)[C@@H](O)[C@H]1O [ApApARp *A, Adenylyl-(2'-5')-adenylyl-(2'-5')-(PR)-P-thioadenylyl-(2'-5')-adenosine] | inosine, hypoxanthine; also recorded: ApARp *A | 30% | degraded from the 5'-terminus; also recorded: hydrolyzed from the 5'-terminus | 10 | 38 | most efficient inhibitors | 90 | – | – |
| Nc1ncnc2nc[nH]c12 [adenine, reference compound] | – | – | – | – | 4 | not able to inhibit syncytia formation | – | did not inhibit HIV-1 RT activity | – |
| Nc1ncnc2c1ncn2[C@@H]1O[C@H](CO)[C@@H](O)[C@H]1O [adenosine, reference compound] | – | – | – | – | 0 | did not inhibit syncytia formation | – | did not inhibit HIV-1 RT activity | not able to inhibit syncytia formation |
| (PR)-P-thioadenylyl-(2',5')-adenylyl-(2',5')-adenosine [ARp *ApA] | not hydrolyzed | 0% | – | > 1 | 32 | – | 10 | – | – |
| (PR)-P-thioadenylyl-(2',5')-adenylyl-(2',5')-adenylyl-(2',5')-adenosine [ARp *ApApA] | inosine, hypoxanthine; also recorded: ARp *A | 50% and 100% | rapidly hydrolyzed from the 2',3'-terminus | – | 57 | – | 16 | – | – |
| (PS)-P-thioadenylyl-(2',5')-adenylyl-(2',5')-adenosine [ASp *ApA] | not hydrolyzed | 0% | – | > 1 | 56 | – | 15 | – | – |
| (PS)-P-thioadenylyl-(2',5')-adenylyl-(2',5')-adenylyl-(2',5')-adenosine [ASp *ApApA] | inosine, hypoxanthine; also recorded: ASp *A | 50% and 100% | rapidly hydrolyzed from the 2',3'-terminus | – | 54 | – | 18 | – | – |
| Adenylyl-(2',5')-(PR) -P-thioadenylyl-(2',5')-adenylyl-(2',5')-adenosine [ApARp *ApA] | inosine, hypoxanthine; also recorded: ARp *ApA | 50% | – | 10 | 52 | – | 26 | – | – |
| Adenylyl-(2',5')-(PS)-P-thioadenylyl-(2',5')-adenylyl-(2',5')-adenosine [ApASp *ApA] | inosine, hypoxanthine; also recorded: ASp *ApA | 50% | – | – | 42 | – | 32 | – | – |
| Adenylyl-(2',5')-adenylyl-(2',5')-(PS)-P-thioadenylyl-(2',5')-adenosine [ApApASp *A] | inosine, hypoxanthine; also recorded: ApASp *A | 33% | degraded from the 5'-terminus; also recorded: hydrolyzed from the 5'-terminus | – | 62 | most efficient inhibitors | 76 | – | – |

Reference: patent US5863905A, “2',5'-phosphorothioate/phosphodiester oligoadenylates and anti-viral uses thereof” (Temple University-Of The Commonwealth System of Higher …, priority 1997, dated 1999)
